ChEMBL document CHEMBL1142967, “Bis-cycloSal-d4T-monophosphates: drugs that deliver two molecules of bioactive nucleotides” (J Med Chem, 2007)

Key:
Cholinesterase = Cholinesterase (Homo sapiens, UniProt P06276); assay: Inhibition of human serum BChE
[1] = Cytotoxicity against CEM/0 cells; type: cell-based, CCRF-CEM; details: human
[2] = system: Human immunodeficiency virus 2; assay: Antiviral activity against H1V2 in TK-deficient CEM cells; type: functional, organism-based, CCRF-CEM
[3] = Hydrolytic stability in 25 mM phosphate buffer at pH 7.3, 37 degC; type: physicochemical; details: for half-life: phosphate buffer; for t1/2: buffer
[4] = system: Human immunodeficiency virus 1; assay: Antiviral activity against HIV1 in CEM/0 cells; type: functional, organism-based
[5] = system: Human immunodeficiency virus 2; assay: Antiviral activity against H1V2 in CEM/0 cells; type: functional, organism-based
[6] = Human immunodeficiency virus 2, CCRF-CEM
[7] = Human immunodeficiency virus 1, CCRF-CEM

Cholinesterase, sequence (P06276 whole entry): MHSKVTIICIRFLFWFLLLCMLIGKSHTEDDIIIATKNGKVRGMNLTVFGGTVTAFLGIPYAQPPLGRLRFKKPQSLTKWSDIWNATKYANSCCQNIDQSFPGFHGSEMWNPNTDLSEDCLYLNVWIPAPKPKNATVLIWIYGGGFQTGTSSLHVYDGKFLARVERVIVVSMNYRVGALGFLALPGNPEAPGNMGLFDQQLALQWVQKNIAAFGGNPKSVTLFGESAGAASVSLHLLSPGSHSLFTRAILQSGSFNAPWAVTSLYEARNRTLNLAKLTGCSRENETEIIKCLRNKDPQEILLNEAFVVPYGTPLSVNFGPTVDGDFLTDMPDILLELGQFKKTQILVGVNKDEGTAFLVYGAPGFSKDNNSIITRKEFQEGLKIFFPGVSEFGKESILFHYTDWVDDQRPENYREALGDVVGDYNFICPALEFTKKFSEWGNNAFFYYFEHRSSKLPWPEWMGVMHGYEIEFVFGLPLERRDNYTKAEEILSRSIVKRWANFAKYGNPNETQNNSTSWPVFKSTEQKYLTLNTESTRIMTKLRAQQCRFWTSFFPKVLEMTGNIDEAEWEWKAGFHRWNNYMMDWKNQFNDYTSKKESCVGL

| Structure (SMILES) | IC50 (Cholinesterase) [nM] | CC50 ([1]; CEM/0 cells) [nM] | EC50 [2, 6] [nM] | half-life [3] [h] | EC50 [4, 7] [nM] | EC50 [5, 6] [nM] | CC50 ([1]; ccrf-cem) [nM] | EC50 ([2]; ccrf-cem) [nM] | EC50 ([4]; cem/0) [nM] | EC50 ([5]; cem/0) [nM] | t1/2 [3] [h] |
| --- | --- | --- | --- | --- | --- | --- | --- | --- | --- | --- | --- |
| Cc1cn([C@H]2C=C[C@@H](COP(=O)(O)OCc3cccc(-c4cccc5c4OP(=O)(OC[C@@H]4C=C[C@H](n6cc(C)c(=O)[nH]c6=O)O4)OC5)c3O)O2)c(=O)[nH]c1=O (stereo not given in full) | 2300 | – | – | – | – | – | – | – | – | – | – |
| Cc1cn([C@H]2C=C[C@@H](COP3(=O)OCc4cccc(-c5ccccc5)c4O3)O2)c(=O)[nH]c1=O (stereo not given in full) | 350 | 22000 | 280 | 5.1 | 130 | 270 | – | – | – | – | – |
| Cc1cc(CO)c(O)c(-c2cc(C)cc(CO)c2O)c1 | > 50000 | > 150000 | – | – | > 150000 | > 150000 | – | – | – | – | – |
| Cc1cc2c(c(-c3cc(C)cc4c3OP(=O)(OC[C@@H]3C=C[C@H](n5cc(C)c(=O)[nH]c5=O)O3)OC4)c1)OP(=O)(OC[C@@H]1C=C[C@H](n3cc(C)c(=O)[nH]c3=O)O1)OC2 (stereo not given in full) | > 50000 | 67100 | 1600 | 12 | 370 | 410 | – | – | – | – | – |
| OCc1cccc(-c2cccc(CO)c2O)c1O | > 50000 | > 150000 | – | – | > 150000 | > 150000 | – | – | – | – | – |
| Cc1cn([C@H]2C=C[C@@H](COP3(=O)OCc4cccc(-c5cccc6c5OP(=O)(OC[C@@H]5C=C[C@H](n7cc(C)c(=O)[nH]c7=O)O5)OC6)c4O3)O2)c(=O)[nH]c1=O (single isomer, unassigned; diastereomer 1) | 14000 | – | – | – | – | – | 107000 | 3330 | 250 | 300 | – |
| Cc1cn([C@H]2C=C[C@@H](COP3(=O)OCc4cccc(-c5cccc6c5OP(=O)(OC[C@@H]5C=C[C@H](n7cc(C)c(=O)[nH]c7=O)O5)OC6)c4O3)O2)c(=O)[nH]c1=O (single isomer, unassigned; diastereomer 2) | > 50000 | – | – | – | – | – | 90700 | 2370 | 210 | 220 | – |
| Cc1cn([C@H]2C=C[C@@H](COP3(=O)OCc4cccc(-c5cccc6c5OP(=O)(OC[C@@H]5C=C[C@H](n7cc(C)c(=O)[nH]c7=O)O5)OC6)c4O3)O2)c(=O)[nH]c1=O (stereo in doubt; 6) | 40000 | – | 2330 | – | 190 | 270 | 27800 | – | – | – | – |
| Cc1cn([C@H]2C=C[C@@H](COP3(=O)OCc4cccc(-c5cccc(CO)c5O)c4O3)O2)c(=O)[nH]c1=O (stereo in doubt; 29(Rp)) | > 50000 | – | – | – | – | – | 69400 | 700 | 270 | 500 | 1.4 |
| Cc1cn([C@H]2C=C[C@@H](COP3(=O)OCc4cccc(-c5cccc(CO)c5O)c4O3)O2)c(=O)[nH]c1=O (stereo in doubt; 29(Sp)) | 790 | 78700 | – | 1.1 | 340 | 400 | – | 1500 | – | – | – |
| Cc1cn([C@H]2C=C[C@@H](COP3(=O)OCc4cccc(-c5cccc(CO)c5O)c4O3)O2)c(=O)[nH]c1=O (stereo in doubt; 29) | 2300 | – | – | – | – | – | – | – | – | – | 1.3 |
| Cc1cn([C@H]2C=C[C@@H](COP3(=O)OCc4cccc(-c5cccc6c5OC(C)(C)OC6)c4O3)O2)c(=O)[nH]c1=O (stereo in doubt; 33(Rp)) | > 50000 | – | – | – | – | – | 55300 | 550 | 360 | – | 21 |
| Cc1cn([C@H]2C=C[C@@H](COP3(=O)OCc4cccc(-c5cccc6c5OC(C)(C)OC6)c4O3)O2)c(=O)[nH]c1=O (stereo in doubt; 33(Sp)) | 3600 | 89300 | – | 14 | 500 | 400 | – | 3000 | – | – | – |
| Cc1cn([C@H]2C=C[C@@H](COP3(=O)OCc4cccc(-c5cccc6c5OC(C)(C)OC6)c4O3)O2)c(=O)[nH]c1=O (stereo in doubt; 33) | 4700 | – | – | – | – | – | 65000 | 1070 | 350 | – | 16 |
| Cc1cn([C@H]2C=C[C@@H](CO)O2)c(=O)[nH]c1=O [STAVUDINE] | – | 105000 | 51000 | – | 250 | 190 | – | – | – | – | – |
